# In patent US5681832A, “Aroylaniline compounds, pharmaceutical compositions, and methods of using same to inhibit viral activity” (priority 1995, dated 1997):
# Where a name gives a salt, the structure may show the parent alone. Read-outs that look alike come from different tables or passages of the source.
# Assays:
# HIV-1 = assay: in vitro anti-HIV screening (NCI XTT soluble-formazan assay, protection of HIV-1-infected CEM T4 lymphocytes from cytolysis); assay type: cell-based; details: for EC50: 144 h, HIV-1-infected CEM cells, 6 days, approximate values, read-out: EC50 (Molar), 50% effective concentration; for TI50 (IC/EC), therapeutic index: IC50/EC50; for Conclusion: NCI anti-HIV screen; for inhibition at 200 µM / activity at 200 µM: 2.00 × 10^-4 Molar; for inhibition at 20 µM / activity at 20 µM: 2.00 × 10^-5 Molar; for inhibition at 2 µM / activity at 2 µM: 2.00 × 10^-6 Molar; for inhibition at 0.2 µM / activity at 0.2 µM: 2.00 × 10^-7 Molar; for inhibition at 6.33 µM / activity at 6.33 µM: 6.33 × 10^-6 Molar; for inhibition at 0.634 µM / activity at 0.634 µM: 6.34 × 10^-7 Molar; for inhibition at 0.0635 µM / activity at 0.0635 µM: 6.35 × 10^-8 Molar
# Description: The aroylaniline compounds of the present invention were subjected to in vitro screening to determine their anti-HIV activity.
# The National Cancer Institute's procedure for testing for agents active against Human Immunodeficiency Virus (HIV) (Weislow, O. W. et al., "New soluble-formazan assay for HIV-1 cytopathic effects: application to high-flux screening of synthetic and natural products for AIDS-antiviral activity," J. Natl Cancer Inst., 81, 577-586 (1989)) is designed to detect agents acting at any stage of the virus reproductive cycle. The assay includes the killing of T4 lymphocytes by HIV. Pursuant to the test, small amounts of HIV are added to cells, and a complete cycle of virus reproduction is necessary to obtain the required cell killing. Agents that interact with virions, cells, or virus gene-products to interfere with viral activities will protect cells from cytolysis. The system is thus designed to detect anti-HIV activity. However, compounds that are chemically labile or are rapidly metabolized in the culture conditions may not show activity in this screen. All tests are compared with at least one positive (e.g., AZT-treated) control done at the same time under identical conditions.
# (§1) 1. Candidate agent is dissolved in dimethyl sulfoxide (unless otherwise instructed) and then diluted 1:100 in cell culture medium before preparing serial half-log10 dilutions which are then to 96-well microfilter plates. T4 lymphocytes (CEM cell line) are added, and after a brief interval HIV-1 is added to all wells, resulting in a 1:200 final dilution […]. Uninfected cells with the compound serve as a toxicity control, and infected and uninfected cells without the compound serve as basic controls.
# (§2) 2. Cultures are incubated at 37° C. in a 5% carbon dioxide atmosphere for 6 days.
# (§3) 3. The tetrazolium salt, XTT, is added to all wells, and cultures are incubated to allow formazan color development by viable cells.
# (§4) 4. Individual wells are analyzed spectrophotometrically to quantitate formazan production, and in addition are viewed microscopically for detection of viable cells and confirmation of protective activity.
# (§5) 5. Drug-tested virus-infected cells are compared with drug-treated noninfected cells and with other appropriate controls (untreated infected and untreated noninfected cells, drug-containing wells without cells, etc.) on the same plate.
# 6. Data are reviewed in comparison with other tests done at the same time and a determination about activity is made.
# The aroylaniline compounds of the present invention were tested for anti-HIV activity according to the above procedure. FIGS. 1-6 represent test results of the aroylaniline compounds of Compounds 1, 3, 13, 14, 29 and 32.
# (§6) FIGS. 1 to 6 display a plot of the log10 of the concentrations (as μg/mL or molar as shown) of the aroylaniline compounds, Compounds 1, 3, 13, 14, 29 and 32, against the measured test values expressed as a percentage of the uninfected, untreated control values. The solid line depicts the percentage of surviving HIV-infected cells treated with sample (at the indicated concentration) relative to uninfected, untreated controls. Thus, the solid line expresses the anti-HIV activity of the compound. The dashed line depicts the percentage of surviving uninfected cells treated with the compound relative to the same uninfected, untreated controls. Thus, the dashed line expresses the growth inhibitory properties of the compound. The viral cytopathic effect […] is indicated by a dotted reference line. […] Survival values of this parameter less than 50% are considered acceptable in the current protocol. Approximate values for 50% effective concentration (EC50) have been calculated for each test and are set forth for these Compounds in Tables 2-7, respectively.
# [1] = tested on: T4 lymphocytes (CEM cell line); assay: toxicity control: survival of uninfected T4 lymphocytes (CEM cell line) treated with compound (growth inhibition); assay type: cell-based; details: Homo sapiens, CCRF-CEM; for IC50: 144 h, read-out: IC50 (Molar)
# Protocol: as §1, §2, §3, §4, §5, §6
# [2] = Human immunodeficiency virus 1, CCRF-CEM
# [3] = Human immunodeficiency virus 1, CCRF-CEM, read-out: Percent of Protection
# [4] = Human immunodeficiency virus 1, CEM-T4, read-out: Percent of Control, Infected
# [5] = read-out: Percent of Control, Uninfected
smiles,measurement,setting,value
"O=C(Nc1ccc(/C=C/c2ccc(NC(=O)c3cc(S(=O)(=O)O)c4cccnc4c3O)cc2S(=O)(=O)O)c(S(=O)(=O)O)c1)Nc1ccc(/C=C/c2ccc(NC(=O)c3cc(S(=O)(=O)O)c4cccnc4c3O)cc2S(=O)(=O)O)c(S(=O)(=O)O)c1 [Compound 3, 1,3-di[2,2'-disulfo-4(8-hydroxy-5-sulfo-7-quinoline)]stilbene urea, hexasodium salt]",EC50,HIV-1; [2],4.06 µM
same,inhibition at 15.8 µM,"HIV-1; Human immunodeficiency virus 1, CCRF-CEM, 1.58 × 10^-5 Molar, read-out: Percent of Protection",92.9%
same,inhibition at 1.58 µM,"HIV-1; Human immunodeficiency virus 1, CCRF-CEM, 1.58 × 10^-6 Molar, read-out: Percent of Protection",0.19%
same,inhibition at 0.158 µM,"HIV-1; Human immunodeficiency virus 1, CCRF-CEM, 1.58 × 10^-7 Molar, read-out: Percent of Protection",-1.29%
same,inhibition at 0.0158 µM,"HIV-1; Human immunodeficiency virus 1, CCRF-CEM, 1.58 × 10^-8 Molar, read-out: Percent of Protection",0.19%
same,inhibition at 50 µM,"HIV-1; Human immunodeficiency virus 1, CCRF-CEM, 5.00 × 10^-5 Molar, read-out: Percent of Protection",90.8%
same,inhibition at 5 µM,"HIV-1; Human immunodeficiency virus 1, CCRF-CEM, 5.00 × 10^-6 Molar, read-out: Percent of Protection",61.1%
same,inhibition at 0.501 µM,"HIV-1; Human immunodeficiency virus 1, CCRF-CEM, 5.01 × 10^-7 Molar, read-out: Percent of Protection",2%
same,inhibition at 0.0502 µM,"HIV-1; Human immunodeficiency virus 1, CCRF-CEM, 5.02 × 10^-8 Molar, read-out: Percent of Protection",0.51%
same,activity at 15.8 µM,"HIV-1; Human immunodeficiency virus 1, CEM-T4, 1.58 × 10^-5 Molar, read-out: Percent of Control, Infected",93.2%
same,activity at 1.58 µM,"HIV-1; Human immunodeficiency virus 1, CEM-T4, 1.58 × 10^-6 Molar, read-out: Percent of Control, Infected",4.18%
same,activity at 0.158 µM,"HIV-1; Human immunodeficiency virus 1, CEM-T4, 1.58 × 10^-7 Molar, read-out: Percent of Control, Infected",2.76%
same,activity at 0.0158 µM,"HIV-1; Human immunodeficiency virus 1, CEM-T4, 1.58 × 10^-8 Molar, read-out: Percent of Control, Infected",4.18%
same,activity at 50 µM,"HIV-1; Human immunodeficiency virus 1, CEM-T4, 5.00 × 10^-5 Molar, read-out: Percent of Control, Infected",91.1%
same,activity at 5 µM,"HIV-1; Human immunodeficiency virus 1, CEM-T4, 5.00 × 10^-6 Molar, read-out: Percent of Control, Infected",62.7%
same,activity at 0.501 µM,"HIV-1; Human immunodeficiency virus 1, CEM-T4, 5.01 × 10^-7 Molar, read-out: Percent of Control, Infected",5.92%
same,activity at 0.0502 µM,"HIV-1; Human immunodeficiency virus 1, CEM-T4, 5.02 × 10^-8 Molar, read-out: Percent of Control, Infected",4.49%
same,"TI50 (IC/EC), therapeutic index",HIV-1,> 1.23 × 10^+1
same,Conclusion,HIV-1,CONFIRMED ACTIVE
same,IC50,"[1]; uninfected CEM cells, 6 days",> 50 µM
same,activity at 15.8 µM,"[1]; 1.58 × 10^-5 Molar, read-out: Percent of Control, Uninfected",103%
same,activity at 1.58 µM,"[1]; 1.58 × 10^-6 Molar, read-out: Percent of Control, Uninfected",95.7%
same,activity at 0.158 µM,"[1]; 1.58 × 10^-7 Molar, read-out: Percent of Control, Uninfected",94.4%
same,activity at 0.0158 µM,"[1]; 1.58 × 10^-8 Molar, read-out: Percent of Control, Uninfected",111%
same,activity at 50 µM,"[1]; 5.00 × 10^-5 Molar, read-out: Percent of Control, Uninfected",98%
same,activity at 5 µM,"[1]; 5.00 × 10^-6 Molar, read-out: Percent of Control, Uninfected",97%
same,activity at 0.501 µM,"[1]; 5.01 × 10^-7 Molar, read-out: Percent of Control, Uninfected",97.7%
same,activity at 0.0502 µM,"[1]; 5.02 × 10^-8 Molar, read-out: Percent of Control, Uninfected",95.8%
"O=C(O)CCSCc1cc(C(=O)Nc2ccc(C=Cc3ccc(NC(=O)c4cc(CSCCC(=O)O)c5cccnc5c4O)cc3S(=O)(=O)O)c(S(=O)(=O)O)c2)c(O)c2ncccc12 [Compound 13, 4,4'-di[5-(2-carboxyethylthiomethyl)-8-hydroxy-7-quinolinecarboxyamido]stilbene-2,2'-disulfonic acid tetrasodium salt]",EC50,HIV-1; [2],1.05 µM
same,inhibition at 63.2 µM,HIV-1; [3],29.4%
same,inhibition at 200 µM,HIV-1; [3],-28%
same,inhibition at 20 µM,HIV-1; [3],67.5%
same,inhibition at 2 µM,HIV-1; [3],84.4%
same,inhibition at 0.2 µM,HIV-1; [3],-17.9%
same,inhibition at 6.33 µM,HIV-1; [3],134%
same,inhibition at 0.634 µM,HIV-1; [3],24.6%
same,inhibition at 0.0635 µM,HIV-1; [3],15.6%
same,activity at 63.2 µM,HIV-1; [4],1.63%
same,activity at 200 µM,HIV-1; [4],2.7%
same,activity at 20 µM,HIV-1; [4],75.3%
same,activity at 2 µM,HIV-1; [4],88.1%
same,activity at 0.2 µM,HIV-1; [4],10.4%
same,activity at 6.33 µM,HIV-1; [4],126%
same,activity at 0.634 µM,HIV-1; [4],42.7%
same,activity at 0.0635 µM,HIV-1; [4],35.8%
same,"TI50 (IC/EC), therapeutic index",HIV-1,2.78 × 10^+1
same,Conclusion,HIV-1,CONFIRMED ACTIVE
same,IC50,[1],29 µM
same,activity at 0.0635 µM,[1]; [5],86.4%
same,activity at 0.2 µM,[1]; [5],90.5%
same,activity at 0.634 µM,[1]; [5],92.2%
same,activity at 2 µM,[1]; [5],111%
same,activity at 6.33 µM,[1]; [5],118%
same,activity at 20 µM,[1]; [5],73.7%
same,activity at 63.2 µM,[1]; [5],0.37%
same,activity at 200 µM,[1]; [5],2.05%
O=C(O)CSCc1cc(C(=O)Nc2ccc(C=Cc3ccc(NC(=O)c4cc(CSCC(=O)O)c5cccnc5c4O)cc3S(=O)(=O)O)c(S(=O)(=O)O)c2)c(O)c2ncccc12 [Compound 14],EC50,HIV-1; [2],0.805 µM
same,inhibition at 200 µM,HIV-1; [3],27.6%
same,inhibition at 20 µM,HIV-1; [3],16.6%
same,inhibition at 2 µM,HIV-1; [3],147%
same,inhibition at 0.2 µM,HIV-1; [3],17.6%
same,inhibition at 63.2 µM,"HIV-1; Human immunodeficiency virus 1, CCRF-CEM, 6.32 × 10^-5 Molar, read-out: Percent of Protection",6.56%
same,inhibition at 6.33 µM,HIV-1; [3],151%
same,inhibition at 0.634 µM,HIV-1; [3],25%
same,inhibition at 0.0635 µM,HIV-1; [3],16%
same,activity at 200 µM,HIV-1; [4],29.8%
same,activity at 20 µM,HIV-1; [4],19.1%
same,activity at 2 µM,HIV-1; [4],146%
same,activity at 0.2 µM,HIV-1; [4],20%
same,activity at 63.2 µM,"HIV-1; Human immunodeficiency virus 1, CEM-T4, 6.32 × 10^-5 Molar, read-out: Percent of Control, Infected",9.36%
same,activity at 6.33 µM,HIV-1; [4],149%
same,activity at 0.634 µM,HIV-1; [4],27.2%
same,activity at 0.0635 µM,HIV-1; [4],18.5%
same,"TI50 (IC/EC), therapeutic index",HIV-1,2.05 × 10^+2
same,Conclusion,HIV-1,CONFIRMED ACTIVE
same,IC50,[1],16.5 µM
same,activity at 0.0635 µM,[1]; [5],80.2%
same,activity at 0.2 µM,[1]; [5],88.9%
same,activity at 0.634 µM,[1]; [5],122%
same,activity at 2 µM,[1]; [5],206%
same,activity at 6.33 µM,[1]; [5],221%
same,activity at 20 µM,[1]; [5],15.5%
same,activity at 63.2 µM,[1]; [5],2.52%
same,activity at 200 µM,[1]; [5],-0.84%
